{
  "source": "patent US20240207266A1",
  "about": "“METHODS FOR TREATING AND MONITORING PARKINSON'S DISEASE” (Denali Therapeutics Inc., priority 2021, published 2024)",
  "key": {"[1]": {"assay": "Phase 1 first-in-human study, safety and tolerability, multiple-dose cohorts (Parts B, D, E)", "assay_type": "in vivo", "experimental": "This double-blind, placebo-controlled Phase 1 study comprised single-ascending dose (SAD) and 10-day, 14-day, and 28-day multiple-ascending dose (MAD) parts in healthy volunteers. BID=twice daily; PBO=placebo; QD=once daily.\nIn a separate analysis of ≥1 TEAE in ≥2 subjects per treatment arm included the following additional TEAEs not listed above: ear pain (n=2; 105 mg QD 10-day cohort); nasopharyngitis (n=2; 225 mg QD 28-day cohort); asymptomatic COVID-19 (n=2; 400 mg BID 14-day cohort); somnolence (n=2; 250 mg BID 14-day cohort). 2 subjects also experienced presyncope associated with lumbar puncture (one each for 150 and 225 mg QD 28-day cohort).\nIn the Phase 1 study in healthy volunteers, the demographics of participants was as follows: • 184 HVs (145 active, 39 placebo) were treated with single or multiple once daily (QD) or twice daily (BID) doses up to 28 days in the following study Parts: • Part A (SAD; young HVs; n=48): 100% male and median age of 25 (range, 18-50) years; • Part B (10-day MAD; young HVs; n=80): 99% male and median age of 26.5 (range, 18-50) years; • Part C (SAD: elderly HVs; n=8): 50% male and median age of 69 (range, 67-74) years; • Part D (28-day MAD; young HVs; n=17): 100% male and median age of 29 (range, 18-39) years; and • E (14-day MAD: young HVs: n=31): 100% male and median age 30 (range 18-50) years.\nThis was a Phase 1, randomized, placebo-controlled, double-blind FIH study designed to determine the safety, tolerability. PK, and pharmacodynamics of compound I in healthy subjects.\nPart B of this study was composed of sequential multiple ascending dose (MAD) cohorts. Healthy subjects were enrolled in 8 cohorts (Cohorts B1-B8; n=10/cohort) and were administered compound I 15, 30, 45, 70, 105, 150, 225, or 300 mg or placebo (4:1 ratio) QD for 10 days.\nPart D was composed of a multiple-dose cohort (Cohort D1) of healthy subjects administered either compound I 225 mg (n=13) or placebo (n=4) QD for 28 days.\nPart E is composed of sequential MAD cohorts. Healthy subjects in Cohort E1 were administered compound I 150 mg or placebo BID (4:1 ratio) for 14 days (n=9) and subjects in Cohort E2 were administered compound I 250 mg or placebo BID (4:1 ratio) for 14 days (n=11). Subjects in the ongoing Cohort E3 are being administered […] or placebo BID (4:1 ratio) for 14 days."}, "[2]": {"assay": "Phase 1b study in subjects with Parkinson's disease, safety and tolerability", "assay_type": "in vivo, human", "excerpt": "This study was a double-blind, placebo-controlled, parallel-design Phase 1b study with 28-day dosing, administered once daily in Parkinson's disease patients.\nGERD, gastroesophageal reflux disease: TEAE, treatment-emergent adverse event. ^aProcedural related includes (in order of frequency): procedural pain, post procedural contusion, post procedural hematoma, and procedural headache; ^bHypotension and orthostatic hypotension occurred in the same two patients.\nA total of 36 patients with PD (26 active, 10 placebo) were treated with up to 300 mg QD for 28 days (FIG. 8).\nThis was a Phase 1b, randomized, placebo-controlled, double-blind study designed to determine the safety, tolerability, PK, and pharmacodynamics of compound I in subjects with PD. The conduct of this study has been completed and the clinical study report is in progress. In Part 1, subjects were administered compound I 80 mg or placebo QD (1:1 ratio) for 28 days (n=8). In Part 2, subjects were administered compound I 80 or 130 mg or placebo QD (1:2:1 ratio) for 28 days (n=17). In Part 3, subjects were administered compound I 300 mg or placebo QD (4:1 ratio) for 28 days (n=11)."}, "pS935 LRRK2": {"molecular_target": "T1, pS935 LRRK2 (Homo sapiens, UniProt Q5S007)", "T1 construct": "from tissue; host or cells: human whole blood from clinical study subjects (healthy subjects, and subjects with PD in Phase 1b)", "T1 sequence (Q5S007 whole entry)": "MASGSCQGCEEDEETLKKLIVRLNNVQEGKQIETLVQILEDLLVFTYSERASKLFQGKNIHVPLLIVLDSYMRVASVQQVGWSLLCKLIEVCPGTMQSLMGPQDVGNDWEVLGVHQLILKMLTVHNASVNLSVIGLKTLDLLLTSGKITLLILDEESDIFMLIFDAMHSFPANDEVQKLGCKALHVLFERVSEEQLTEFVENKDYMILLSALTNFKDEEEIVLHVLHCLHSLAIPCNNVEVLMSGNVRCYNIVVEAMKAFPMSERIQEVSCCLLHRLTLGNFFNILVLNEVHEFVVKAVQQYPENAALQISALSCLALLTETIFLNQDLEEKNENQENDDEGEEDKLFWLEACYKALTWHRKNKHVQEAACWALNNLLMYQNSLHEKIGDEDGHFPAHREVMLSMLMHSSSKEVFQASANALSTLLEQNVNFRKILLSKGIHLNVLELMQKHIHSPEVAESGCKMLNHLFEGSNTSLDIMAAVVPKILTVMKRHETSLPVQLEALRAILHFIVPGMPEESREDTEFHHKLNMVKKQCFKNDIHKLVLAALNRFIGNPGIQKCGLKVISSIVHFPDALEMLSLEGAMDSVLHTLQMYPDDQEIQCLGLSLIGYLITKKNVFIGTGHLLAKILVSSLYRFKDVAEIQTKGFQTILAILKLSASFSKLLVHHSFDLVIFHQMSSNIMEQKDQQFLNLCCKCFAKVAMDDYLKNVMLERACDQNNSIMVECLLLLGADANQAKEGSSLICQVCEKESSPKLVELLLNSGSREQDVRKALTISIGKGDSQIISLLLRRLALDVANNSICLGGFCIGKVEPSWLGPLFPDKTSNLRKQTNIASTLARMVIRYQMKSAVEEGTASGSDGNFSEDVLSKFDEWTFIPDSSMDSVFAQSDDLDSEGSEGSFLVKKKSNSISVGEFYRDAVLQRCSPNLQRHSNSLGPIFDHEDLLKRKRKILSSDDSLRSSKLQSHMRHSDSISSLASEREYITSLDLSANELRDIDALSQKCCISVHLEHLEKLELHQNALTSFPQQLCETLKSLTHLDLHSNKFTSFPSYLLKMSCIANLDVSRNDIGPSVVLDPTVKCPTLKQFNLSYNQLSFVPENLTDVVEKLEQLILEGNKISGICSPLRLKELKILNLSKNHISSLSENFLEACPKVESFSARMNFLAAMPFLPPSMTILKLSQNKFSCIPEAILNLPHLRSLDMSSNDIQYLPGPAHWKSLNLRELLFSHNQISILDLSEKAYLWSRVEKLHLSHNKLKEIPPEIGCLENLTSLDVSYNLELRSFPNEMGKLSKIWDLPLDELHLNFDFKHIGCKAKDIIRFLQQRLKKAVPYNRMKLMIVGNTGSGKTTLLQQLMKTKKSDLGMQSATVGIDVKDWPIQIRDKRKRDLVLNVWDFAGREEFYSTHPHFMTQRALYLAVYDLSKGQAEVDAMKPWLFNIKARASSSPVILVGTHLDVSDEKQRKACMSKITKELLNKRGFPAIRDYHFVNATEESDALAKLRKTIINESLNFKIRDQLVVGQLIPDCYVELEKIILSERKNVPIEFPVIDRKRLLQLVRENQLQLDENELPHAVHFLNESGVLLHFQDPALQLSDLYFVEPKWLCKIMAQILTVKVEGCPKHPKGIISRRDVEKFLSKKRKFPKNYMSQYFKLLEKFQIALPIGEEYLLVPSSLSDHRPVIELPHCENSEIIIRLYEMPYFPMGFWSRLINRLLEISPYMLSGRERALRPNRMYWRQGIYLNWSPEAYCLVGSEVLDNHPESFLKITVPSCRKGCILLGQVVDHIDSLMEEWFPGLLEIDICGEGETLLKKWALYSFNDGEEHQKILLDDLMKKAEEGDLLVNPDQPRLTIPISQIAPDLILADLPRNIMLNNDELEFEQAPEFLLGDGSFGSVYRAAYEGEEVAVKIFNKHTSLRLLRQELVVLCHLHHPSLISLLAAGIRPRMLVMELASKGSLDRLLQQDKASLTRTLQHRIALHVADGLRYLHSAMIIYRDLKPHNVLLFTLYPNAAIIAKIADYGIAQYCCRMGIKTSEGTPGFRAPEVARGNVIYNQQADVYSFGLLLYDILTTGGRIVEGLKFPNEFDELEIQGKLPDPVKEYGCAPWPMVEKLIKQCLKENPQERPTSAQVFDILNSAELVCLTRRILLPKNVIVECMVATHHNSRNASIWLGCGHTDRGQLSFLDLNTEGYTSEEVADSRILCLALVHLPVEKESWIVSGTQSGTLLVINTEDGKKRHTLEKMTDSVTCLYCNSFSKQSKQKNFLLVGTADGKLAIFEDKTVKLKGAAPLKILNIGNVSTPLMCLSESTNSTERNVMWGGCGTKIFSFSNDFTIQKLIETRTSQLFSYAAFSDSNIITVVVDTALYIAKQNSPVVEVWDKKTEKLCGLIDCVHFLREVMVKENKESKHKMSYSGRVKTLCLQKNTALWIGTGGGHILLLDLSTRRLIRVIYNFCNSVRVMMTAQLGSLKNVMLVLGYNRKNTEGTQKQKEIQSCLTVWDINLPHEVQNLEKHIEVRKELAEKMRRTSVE", "assay": "pS935 LRRK2 in whole blood, MSD immunoassay (target engagement, Phase 1/1b)", "assay_type": "in vivo", "conditions": "for reduction in pS935 compared with baseline: Phase 1 healthy volunteers", "experimental": "Frozen human whole blood samples were thawed and directly lysed in 96-well plates (100 μl whole blood sample with 100 μl lysis buffer). Samples were spun down (2,500×g for 20 minutes at 4° C.) before MSD assay.\nCapture antibodies were biotinylated using EZ-Link™ NHS-LC-LC-Biotin (Thermo Fisher, #21343), and detection antibodies were conjugated using Sulfo-TAG NHS-Ester (MSD, R31AA-1). 96-well (or 384-well) MSD GOLD Small Spot Streptavidin plates (MSD L45SSA-1) were coated with 25 μl (or 15 μl for 384 well plates) of capture antibody diluted in Diluent 100 (MSD, R50AA-2) for 1 hour at room temperature with 700 rpm shaking (1000 rpm for 384-well). After TBST wash (3×), 25 μl samples were added each well (10 μl for 384-well) and incubated at 4° C. overnight with agitation at 700 rpm. After TBST wash (3×), 25 μl of detection antibodies (15 μl for 384-well) were added each well diluted in TBST containing 25% MSD blocker A (MSD R93AA-1), together with rabbit (Rockland Antibodies D610-1000) and mouse gamma globin fraction (D609-0100). After 1 hour incubation at room temperature at 700 rpm, followed by TBST washes (3×), 150 μl MSD read buffer (MSD R92TC. 1:1 diluted with water) is added (35 μl for 384-well), and plates are read on the MSD Sector S 600."}, "[3]": {"conditions": "Part B, healthy subjects, 15-300 mg QD for 10 days"}, "[4]": {"conditions": "Part D, healthy subjects, 225 mg QD for 28 days"}, "[5]": {"conditions": "Part E, healthy subjects, BID for 14 days"}, "[6]": {"conditions": "subjects with PD, 80, 130 or 300 mg QD for 28 days"}, "[7]": {"conditions": "subjects with PD, 80-300 mg QD for 28 days"}},
  "note": "“Also recorded” adds a separate entry of the source.",
  "data": [
    {"smiles": "CCNc1nc(Nc2cc(C(C)(C)n3nccn3)nn2C2CC2)ncc1C(F)(F)F", "note": "[compound I, N2-(3-(2-(2H-1,2,3-triazol-2-yl)propan-2-yl)-1-cyclopropyl-1H-pyrazol-5-yl)-N4-ethyl-5-(trifluoromethyl)pyrimidine-2,4-diamine]", "values": [
      {"measurement": "presyncope associated with lumbar puncture", "setting": "[1]; FIG. 9 legend, one each for 150 and 225 mg QD 28-day cohort", "result": 2, "unit": "subjects"},
      {"measurement": "changes in safety laboratory, vital signs, ECG, neurological examination, PFT or C-SSRS results", "setting": "[1]; [3]", "result": "No clinically significant changes"},
      {"measurement": "deaths, other SAEs, AESIs or TEAEs leading to study drug discontinuation", "setting": "[1]; [3]", "result": "No deaths, other SAEs (serious adverse events), AESIs (adverse events of special interests), or treatment-emergent adverse events (TEAEs) leading to study drug discontinuation were reported"},
      {"measurement": "subjects who experienced a severe TEAE", "setting": "[1]; [3]", "result": "no subjects"},
      {"measurement": "subjects who experienced ≥1 TEAE", "setting": "[1]; [3]", "result": "56 (86.2%) subjects (%)"},
      {"measurement": "subjects who experienced ≥1 mild TEAE", "setting": "[1]; [3]", "result": "55 (84.6%) subjects (%)"},
      {"measurement": "subjects who experienced ≥1 moderate TEAE", "setting": "[1]; [3]", "result": "9 (13.8%) subjects (%)"},
      {"measurement": "tolerability", "setting": "[1]; Part B, healthy subjects, multiple doses up to 300 mg QD for 10 days", "result": "generally well tolerated"},
      {"measurement": "changes in safety laboratory, vital sign, ECG, neurological examination, PFT or C-SSRS results", "setting": "[1]; [4]", "result": "No other clinically significant changes"},
      {"measurement": "deaths, other SAEs or AESIs", "setting": "[1]; [4]", "result": "No deaths, other SAEs, or AESIs were reported"},
      {"measurement": "subjects who experienced a moderate or severe TEAE", "setting": "[1]; [4]", "result": "no subjects"},
      {"measurement": "subjects who experienced ≥1 TEAE", "setting": "[1]; [4]", "result": "10 (77%) subjects (%)"},
      {"measurement": "subjects who experienced ≥1 mild TEAE", "setting": "[1]; [4]", "result": "10 (77%) subjects (%)"},
      {"measurement": "tolerability", "setting": "[1]; [4]", "result": "generally well tolerated"},
      {"measurement": "tolerability", "setting": "[1]; Part E, Cohorts E1 and E2, healthy subjects, 150 and 250 mg BID for 14 days", "result": "generally well tolerated"},
      {"measurement": "subjects with moderate TEAEs", "setting": "[1]; Part E, healthy subjects, 250 mg BID for 14 days", "result": 2, "unit": "subjects"},
      {"measurement": "SAEs or AESIs", "setting": "[1]; [5]", "result": "No SAEs or AESIs were reported"},
      {"measurement": "changes in vital sign, ECG, telemetry, safety laboratory (including liver and renal function testing), PFT, neurological examination or C-SSRS results", "setting": "[1]; [5]", "result": "No clinically significant changes"},
      {"measurement": "subjects who experienced 1 TEAE", "setting": "[1]; [5]", "result": "25 (100.0%) subjects (%)"},
      {"measurement": "study-drug related discontinuations", "setting": "[1]; Part E, healthy subjects, one at 250 mg BID, one at 400 mg", "result": "Two study-drug related discontinuations"},
      {"measurement": "SAEs or AESIs", "setting": "[2]; [6]", "result": "No SAEs or AESIs were reported"},
      {"measurement": "tolerability", "setting": "[2]; [6]", "result": "generally well tolerated"},
      {"measurement": "changes from baseline or trends in safety laboratory (including liver and renal function testing), ECG, neurological assessment, vital sign, PFT or C-SSRS results", "setting": "[2]; [7]", "result": "No other clinically significant individual changes from baseline or notable trends"},
      {"measurement": "subjects who experienced ≥1 TEAE", "setting": "[2]; [7]", "result": "23 (88.5%) subjects (%)"},
      {"measurement": "subjects with moderate TEAEs", "setting": "[2]; [7]", "result": "5 (19%) subjects (%)"},
      {"measurement": "additional subjects with TEAEs of mild orthostatic hypotension / mild hypotension plus orthostatic hypotension", "setting": "[2]; subjects with PD, 80 mg QD and 300 mg QD, resolved while on study drug", "result": "Two additional subjects"},
      {"measurement": "subjects with severe TEAEs", "setting": "[2]; subjects with PD, hypotension (130 mg QD), headache (300 mg QD), both considered not related to study drug", "result": "Two subjects"},
      {"measurement": "target and pathway engagement", "setting": "pS935 LRRK2; HVs and patients with PD, at doses generally well tolerated", "result": "robust target engagement and pathway engagement; also recorded: Robust target and pathway engagement"},
      {"measurement": "reduction of pS935 in whole blood", "setting": "pS935 LRRK2; Phase 1b patients with PD, trough (predose), steady state (Day 28), all dose levels studied", "result": "robust reduction"},
      {"measurement": "reduction in pS935 compared with baseline", "setting": "pS935 LRRK2; whole blood, trough (predose) at steady state (Day 10 Cohort B, Day 28 Cohort D, Day 14 Cohort E), highest dose", "result": "≥ 80", "unit": "%"},
      {"measurement": "reduction in pS935 compared with baseline", "setting": "pS935 LRRK2; whole blood, trough (predose) at steady state, lowest clinically relevant dose", "result": "≥ 50", "unit": "%"},
      {"measurement": "pS935 reduced by at least", "setting": "pS935 LRRK2; whole blood, about 70 to 800 mg/day, stated as an aspect of the method", "result": "41-97%"}
    ]}
  ]
}
